Data taken from paper PMC7646200 (Xenobiotica; the fate of foreign compounds in biological …, 2020).
Entries after “also recorded” stand apart in the source; their conditions may differ. Where two headings read alike, the source gives them in different places.

Columns and labels:
[1] = Sulfonation of 7-hydroxycoumarin derivatives by dog liver cytosol; conditions: both, Beagle, dog, liver cytosol, pH 7.4
[2] = tested on: dog liver cytosol; assay: as above; conditions: for Vmax: value (95 % confidence interval); for intrinsic clearance (Vmax/Km): rank among species; for intrinsic clearance relative to the highest intrinsic clearance value: dog cytosol, highest value = 1 by rat cytosol
[3] = tested on: mouse liver cytosol; assay: Sulfonation of 7-hydroxycoumarin derivatives by mouse liver cytosol; conditions: for sulfonation rate: 10 μM substrate; for Vmax: mouse liver cytosol, value (95 % confidence interval)
[4] = tested on: rabbit liver cytosol; assay: Sulfonation of 7-hydroxycoumarin derivatives by rabbit liver cytosol; conditions: rabbit liver cytosol; for Vmax: value (95 % confidence interval); for sulfonation rate: 10 μM substrate
[5] = as above; conditions: female, Dutch belted, rabbit, liver cytosol, pH 7.4
[6] = tested on: rat liver cytosol; assay: Sulfonation of 7-hydroxycoumarin derivatives by rat liver cytosol; conditions: rat liver cytosol; for sulfonation efficiency, intrinsic clearance (Vmax/Km): rank among species; for Vmax: value (95 % confidence interval)
[7] = as above; conditions: male, Wistar, rat, pH 7.4
[8] = tested on: sheep liver cytosol; assay: Sulfonation of 7-hydroxycoumarin derivatives by sheep liver cytosol; conditions: sheep liver cytosol; for Vmax: value (95 % confidence interval)
[9] = as above; conditions: female, sheep, liver cytosol, pH 7.4
[10] = tested on: pig liver cytosol; assay: Sulfonation of 7-hydroxycoumarin derivatives by pig liver cytosol; conditions: pig liver cytosol; value (95 % confidence interval)
[11] = as above; conditions: female, pig, liver cytosol, pH 7.4
[12] = Sulfonation of 7-hydroxycoumarin derivatives by human liver cytosol; conditions: male, human, liver cytosol, pH 7.4
[13] = tested on: human liver cytosol; assay: as above; conditions: human liver cytosol; value (95 % confidence interval)
[14] = tested on: dog liver cytosol; conditions: for Km: pH 7.4
[15] = in vitro; conditions: male, Wistar, rat, pH 7.4
[16] = tested on: mouse liver cytosol; conditions: pH 7.4
[17] = Sulfonation of 7-hydroxycoumarin derivatives by mouse liver cytosol; conditions: DBA/2N/Kuo, mouse, pH 7.4
[18] = tested on: liver cytosol of human, rat, mouse, rabbit, dog, pig and sheep; assay type: in vitro ADME; conditions: for sulfonation rate: 10 μM substrate, compared among derivatives over all species
[19] = tested on: rat liver cytosol; conditions: pH 7.4
[20] = tested on: human liver cytosol; conditions: pH 7.4
[21] = tested on: pig liver cytosol; conditions: pH 7.4
[22] = tested on: rabbit liver cytosol; conditions: pH 7.4
[23] = tested on: sheep liver cytosol; conditions: pH 7.4

Row | SMILES | Km [1] [µM] | Vmax ([2]; dog liver cytosol) | sulfonation rate ([3]; male mouse liver cytosol) | Vmax [3] | Vmax [4] | Km [5] [µM] | sulfonation efficiency, intrinsic clearance (Vmax/Km) [6] | Vmax [6] | Km ([7]; liver cytosol) [µM] | Vmax [8] | Km [9] [µM] | Vmax [10] | Km [11] [µM] | Km [12] [µM] | Vmax [13] | Km [16] | intrinsic clearance (Vmax/Km) ([2]; dog liver cytosol) | Km ([17]; liver cytosol) [µM] | sulfonation rate [4] | further results
1 | O=c1ccc2ccc(O)cc2o1 [compound 1, 7-hydroxycoumarin, reference compound] | 0.27 | 380 (330–440) nmol/(min * g protein) | Slow | 260 (210–320) nmol/(min * g protein) | 200 (100–310) nmol/(min * g protein) | 1.7 | efficiently; also recorded: highest intrinsic clearance | 410 (360–460) nmol/(min * g protein) | 0.18 | 250 (200–310) nmol/(min * g protein) | 0.41 | 65 (29–100) nmol/(min * g protein) | 4.3 | 1.9 | 84 (26–140) nmol/(min * g protein) |  |  |  |  | sulfonation rate ([3]; female mouse liver cytosol): Slow
2 | COc1cc2ccc(=O)oc2cc1O [compound 3, 6-methoxy-7-hydroxycoumarin] | 0.22 | 420 (390–450) nmol/(min * g protein) |  | No MM | 160 (110–220) nmol/(min * g protein) | 0.99 |  | 540 (510–570) nmol/(min * g protein) |  | 260 (240–290) nmol/(min * g protein) | 0.13 | 15 (10–20) nmol/(min * g protein) | 0.11 | 3.5 | 155 (6–300) nmol/(min * g protein) | no MM |  |  |  | intrinsic clearance (Vmax/Km) [14]: highest; Km [15]: 0.65 µM
3 | CCc1c(C)c2ccc(O)cc2oc1=O [compound 5, 3-ethyl-4-methyl-7-hydroxycoumarin] | 0.45 | 360 (260–460) nmol/(min * g protein) | Slow | 5.3 (3.8–6.8) nmol/(min * g protein) | 58 (21–95) nmol/(min * g protein) | 1.3 |  | No MM |  | 340 (220–460) nmol/(min * g protein) | 1.6 | 26 (12–40) nmol/(min * g protein) | 1.5 | 2.1 | 97 (76–120) nmol/(min * g protein) |  | highest | 0.11 |  | 
4 | CCc1c(C)c2ccc(O)c(C)c2oc1=O [compound 6, 3-ethyl-4,8-dimethyl-7-hydroxycoumarin] | 0.38 | 630 (280–980) nmol/(min * g protein) |  | 14 (11–17) nmol/(min * g protein) | 280 (200–350) nmol/(min * g protein) | 1.7 |  | 130 (73–180) nmol/(min * g protein) | 0.99 | 280 (190–370) nmol/(min * g protein) | 0.48 | 46 (22–69) nmol/(min * g protein) | 1.8 | 0.51 | 99 (74–130) nmol/(min * g protein) |  | highest | 0.14 |  | intrinsic clearance relative to the highest intrinsic clearance value [2]: > 70%; sulfonation rate ([2]; dog liver cytosol, 10 μM substrate): Slow
5 | Cc1c(C)c2ccc(O)c(C)c2oc1=O [compound 7, 3,4,8-trimethyl-7-hydroxycoumarin] | 4.3 | 1300 (0–5200) nmol/(min * g protein) | Slow | 11 (6.8–14) nmol/(min * g protein) | No MM |  | efficiently | 440 (170–710) nmol/(min * g protein) | 0.8 | 300 (250–350) nmol/(min * g protein) | 0.71 | 59 (28–91) nmol/(min * g protein) | 2.1 | 0.65 | 65 (54–76) nmol/(min * g protein) |  |  | 0.11 |  | 
6 | Cc1ccc(-c2cc3ccc(O)cc3oc2=O)cc1 [compound 8, 3-(4-methylphenyl)-7-hydroxycoumarin] | 0.17 | 56 (38–77) nmol/(min * g protein) |  | 26 (16–36) nmol/(min * g protein) | 310 (35–580) nmol/(min * g protein) | 7.3 | efficiently | 170 (92–260) nmol/(min * g protein) |  | 154 (83–230) nmol/(min * g protein) | 5.3 | 12 (2–22) nmol/(min * g protein) | 2.8 | 0.27 | 6.5 (1.6–36) nmol/(min * g protein) |  |  |  | Slow | Km [7]: 0.36 µM; sulfonation rate [18]: highest sulfonation rates
7 | O=c1oc2cc(O)ccc2cc1-c1ccc(O)cc1 [compound 9, 3-(4-hydroxyphenyl)-7-hydroxycoumarin] | 0.051 | 88 (65–120) nmol/(min * g protein) |  | 160 (130–190) nmol/(min * g protein) | 45 (30–62) nmol/(min * g protein) | 0.95 |  |  |  | 41 (26–56) nmol/(min * g protein) | 1.27 |  |  |  |  |  | highest |  |  | intrinsic clearance relative to the highest intrinsic clearance value [2]: > 70%; Km [17]: 0.46 µM; sulfonation rate ([6]; 10 μM substrate): Slow
8 | CN(C)c1ccc(-c2cc3ccc(O)cc3oc2=O)cc1 [compound 12, 3-(4-dimethylaminophenyl)-7-hydroxycoumarin] | 0.44 | 600 (330–970) nmol/(min * g protein) |  | 230 (64–540) nmol/(min * g protein) | 290 (90–560) nmol/(min * g protein) | 0.67 |  | 520 (280–790) nmol/(min * g protein) |  | 440 (360–570) nmol/(min * g protein) | 0.89 | 210 (140–290) nmol/(min * g protein) | 2.8 | 0.39 | 180 (75–320) nmol/(min * g protein) |  | highest |  |  | Km [17]: 0.49 µM; Km [7]: 0.67 µM; sulfonation rate [18]: highest sulfonation rates; intrinsic clearance (Vmax/Km), similarity between species ([18]; compared with other 7-hydroxycoumarin derivatives): more similar between species
9 | O=c1oc2cc(O)ccc2cc1-c1cccnc1 [compound 13, 3-(4-pyridin-3-yl)-7-hydroxycoumarin] |  | 360 (330–430) nmol/(min * g protein) |  | 160 (110–200) nmol/(min * g protein) | 120 (100–210) nmol/(min * g protein) |  | efficiently |  |  | 80 (0–230) nmol/(min * g protein) |  | 24 (17–31) nmol/(min * g protein) |  |  | 59 (53–71) nmol/(min * g protein) | 4.3 µM |  |  | Slow | Km [14]: 3.3 µM; Km [19]: 2.3 µM; Km [20]: 6.6 3.7–6.8) μM; Km [21]: 4 µM; sulfonation rate ([8]; 10 μM substrate): Slow; Km [22]: 10 µM; Km [23]: 6.8 µM
10 | O=c1oc2cc(O)ccc2cc1-n1cncn1 [compound 14, 3-(1H-1,2,4-tirazol-1-yl)-7-hydroxycoumarin] |  | 200 (180–220) nmol/(min * g protein) |  | 78 (69–88) nmol/(min * g protein) | 32 (25–39) nmol/(min * g protein) |  | efficiently | 230 (200–260) nmol/(min * g protein) |  | 220 (93–350) nmol/(min * g protein) |  | 39 (13–65) nmol/(min * g protein) |  |  | 69 (55–84) nmol/(min * g protein) | 4.9 µM |  |  | Slow | Km [14]: 3.9 µM; Km [19]: 1.3 µM; Km [20]: 4.7 µM; Km [21]: 3 µM; Km [22]: 2.8 µM; Km [23]: 12 µM
